These results are taken from patent US20250074970A1, “METHOD OF PURIFYING IMMUNOGLOBULIN G AND USES THEREOF” (CSL Behring AG, priority 2021, published 2025).

Where only a bound is given, the exact number is not on record here.

This assay has as its system Vesicular stomatitis virus (VSV). It is filed as cell-based. The note with it: 30 mM final concentration of OG at 5° C., VSV spiked CRP.

On to `CCCCCCCCO[C@@H]1O[C@H](CO)[C@@H](O)[C@H](O)[C@H]1O` [OG, N-Octyl-β-D-Glucopyranoside], for which the “log 10 reduction factor (LRF)” value is recorded as ≥ 5.3.
